Data as given in patent US20070141619A1, “DRUG RESISTANCE-ASSOCIATED GENE AND USE THEREOF” (BANYU PHARMACEUTICAL CO., Ltd., priority 2000, published 2007).
“Also recorded” adds a separate entry of the source.

Key:
[1] = test system: MCF-7/T8; test: Rhodamine accumulation by flow cytometry in MCF-7/T8; format: cell-based, human; conditions: 5 μM Rhodamine, 30 min, FIG. 7-(c)
Experimental: (§1) The next day, the cells in a fresh medium containing 5 μM Rhodamine were cultured at 37° C. for 30 min in a CO2 incubator to incorporate the compound into the cells. After a lapse of 30 min, the cells were rapidly chilled on ice, washed once with PBS, detached using 2.5% trypsin. […] The collected cells were suspended in Hank's Balanced Salt Solutions with 1% BSA and subjected to fluorometry of the compound using a flow cytometer, FACSCalibur (Becton Dickinson and Company). The value was indicated as Intracellular Accumulation (FIG. 7-(c)).

[2] = test system: MCF-7/R7; test: Rhodamine accumulation by flow cytometry in MCF-7/R7; format: cell-based, human; conditions: 5 μM Rhodamine, 30 min, FIG. 7-(c)
Experimental: as §1

[3] = test system: PC-13 cell lines with introduced ABCG2; test: SRB drug sensitivity, PC-13 cell lines with introduced ABCG2 (stated jointly); format: cell-based, human; conditions: PC-13 cell lines with introduced ABCG2, versus vector alone
Experimental: (§2) Test cells in the logarithmic growth phase were dispensed into wells of 96-well plate at 1×10^3 cells/well. After subculture for 24 hours in a CO2 incubator, a serial diluted agent was added to each well. After further incubation for 72 hours, the cells were fixed with trichloroacetic acid (TCA) and the proteins in the cells were stained by 0.4% sulforhodamine B solution. The samples were eluted by 10 mM Tris-HCl for 1 hour, and each well was measured at 560 nm with a 450 nm reference, by a SPECTRAmax 250 plate reader (Molecular Devices Corp.).
(§3) PC-13 cells were transfected with the ABCG2 expression plasmids using Effectene Transfection Reagent (QIAGEN). The experiment was performed according to the attached procedural manual. As a control experiment, other PC-13 cells were transfected with vector alone without the ABCG2 sequence. The two experiments were conducted simultaneously. Two days after the transfection, the original media were replaced with selection media containing 0.2 mg/ml of Geneticin (GIBCO BRL). By culture for a long time under this condition, stable transfectant clones with the introduced plasmids were selected. Two weeks from the transfection, emerging colonies were picked and expression of ABCG2 in the cells was examined by Northern Blot analysis.

[4] = test system: HeLaS3; test: SRB drug sensitivity, HeLaS3 (Compound-A-sensitive); format: cell-based; conditions: Homo sapiens, HeLa S3, 72 hours with agent
[5] = test system: PC13; test: SRB drug sensitivity, PC-13 parental cells; format: cell-based; conditions: Homo sapiens, 72 hours with agent
[6] = test system: LY/NR1; test: SRB drug sensitivity, Compound-A-resistant LY/NR1; format: cell-based, mouse; conditions: for RR: Relative Resistance: IC50 LY/NR1 divided by IC50 LY; for IC50: Mus musculus, LY/NR1, SRB, 72 hours with agent
Text: A colony that grew under these conditions was isolated using a cloning ring (Asahi Techno Glass Corporation) and designated as LY/NR1.

[7] = test system: HeLa#7; test: SRB drug sensitivity, spontaneously resistant HeLa#7; format: cell-based, human; conditions: for IC50: Homo sapiens, HeLa#7, SRB, 72 hours with agent; for RR: Relative Resistance: IC50 HeLa#7 divided by IC50 HeLaS3
[8] = test system: PC-13/ABCG2-3; test: SRB drug sensitivity, PC-13 transfected with ABCG2 (clone 3); format: cell-based, human; conditions: for Rel. Res. (relative resistance): IC50 PC-13/ABCG2-3 divided by IC50 of vector cells
Experimental: as §2, §3

[9] = test system: ABCG2; test: as above; format: cell-based, human; conditions: human; PC-13/ABCG2-3; average ± standard error of three independent experiments
Experimental: as §2, §3

[10] = test system: PC13/NR13; test: SRB drug sensitivity, Compound-A-resistant PC-13/NR13; format: cell-based, human; conditions: for IC50: Homo sapiens, PC-13, PC13/NR13, SRB, 72 hours with agent; for RR: Relative Resistance: IC50 PC13/NR13 divided by IC50 PC13
[11] = test system: LY; test: SRB drug sensitivity, LY parental fibroblasts; format: cell-based; conditions: Mus musculus, Fibroblast, 72 hours with agent
[12] = test system: LY/NR2; test: SRB drug sensitivity, Compound-A-resistant LY/NR2; format: cell-based, mouse; conditions: for RR: Relative Resistance: IC50 LY/NR2 divided by IC50 LY; for IC50: Mus musculus, LY/NR2, SRB, 72 hours with agent
Text: An emerging colony was isolated as described above and designated as LY/NR2.

[13] = test system: HCT116/NR1; test: SRB drug sensitivity, Compound-A-resistant HCT116/NR1; format: cell-based, human; conditions: for IC50: Homo sapiens, HCT-116, HCT116/NR1, SRB, 72 hours with agent; for RR: Relative Resistance: IC50 HCT116/NR1 divided by IC50 HCT116
Text: An emerging colony was isolated and designated as HCT116/NR1.

[14] = test system: PC-13/ABCG2-2; test: SRB drug sensitivity, PC-13 transfected with ABCG2 (clone 2); format: cell-based, human; conditions: for Rel. Res. (relative resistance): IC50 PC-13/ABCG2-2 divided by IC50 of vector cells
Experimental: as §2, §3

[15] = test system: ABCG2; test: as above; format: cell-based, human; conditions: human; PC-13/ABCG2-2; average ± standard error of three independent experiments
Experimental: as §2, §3

[16] = test system: HCT116; test: SRB drug sensitivity, HCT116 parental cells; format: cell-based; conditions: Homo sapiens, HCT-116, 72 hours with agent
[17] = test system: PC-13/Vector; test: SRB drug sensitivity, PC-13 transfected with vector alone; format: cell-based; conditions: Homo sapiens, average ± standard error of three independent experiments
Experimental: as §2, §3

[18] = test system: MCF-7/T8; test: SRB drug sensitivity, MCF-7 with introduced ABCG2-482T; format: cell-based, human; conditions: MCF-7/T8 (ABCG2-482T)
Experimental: (§4) The full length human ABCG2 cDNA of the present invention prepared in Example 5 was inserted into a plasmid for expression in mammalian cells, followed by transfection of human breast cancer cells, MCF-7 cells, with the ABCG2 expression plasmid using Effectene Transfection Reagent (QIAGEN). Likewise, human breast cancer cells, MCF-7 cells, were transfected with a plasmid including the ABCG2-482T cDNA prepared in Example 10. The experiments were carried out according to an attached procedural manual. As a control experiment, the MCF-7 cells were also transfected with vector alone. The three experiments were conducted simultaneously. Two days from the transfection, the original media were replaced with selective media containing 900 μg/ml of Geneticin (GIBCO BRL). By culture over a prolonged term under this condition, stable transfectant clones with introduced plasmid were selected. Two to three weeks from the transfection, emerging colonies were picked and the expression of ABCG2 in the cells was examined by Northern Blot analysis. Northern Blot analysis was performed as described in Example 4: 8 μg of total RNA prepared from each clone using RNeasy mini kit (QIAGEN) was separated on a formaldehyde denatured agarose gel, followed by analysis using the human ABCG2 cDNA fragment of the present invention as a probe.
(§5) The drug sensitivity of the stable transfectant clones which were established from MCF-7 cells with introduced ABCG2- or ABCG2-482T-expression plasmid, was measured using SRB method as described in Example 2 and the sensitivity of each transfectant to drugs was shown as a relative resistance to the cells with introduced vector alone (FIG. 6).

[19] = test system: MCF-7/R7; test: SRB drug sensitivity, MCF-7 with introduced ABCG2 of the present invention; format: cell-based, human; conditions: MCF-7/R7 (ABCG2 of the present invention), FIG. 6
Experimental: as §4, §5

[20] = test system: MCF-7 cells expressing introduced BCRP; conditions: report of Doyle et al. 1998; cited from earlier work
[21] = test system: MCF-7/R7; test: Mitoxantrone accumulation by flow cytometry in MCF-7/R7; format: cell-based, human; conditions: 20 μM Mitoxantrone, 90 min, FIG. 7-(b)
Experimental: (§6) The amount of accumulation of Mitoxantrone in the MCF-7 stable transfectants with introduced ABCG2 of the present invention or ABCG2-482T was measured as follows.
(§7) Cells seeded at 1.0×10^6 cells/well in a 6-well culture plate were incubated for overnight. The next day, the cells in a fresh medium containing 20 μM Mitoxantrone were cultured at 37° C. for 90 min in a CO2 incubator to incorporate the compound into the cells. After a lapse of 90 min, the cells were rapidly chilled on ice, washed once with PBS, detached using 2.5% trypsin. The lysate was centrifuged at 400×g at 4° C. for 3 min to collect the cells. The collected cells were suspended in Hank's Balanced Salt Solutions containing 1% BSA and subjected to fluorimetry of the compound using a flow cytometer, Epics Elite (Beckman Coulter, Inc.). The value was indicated as Intracellular Accumulation (FIG. 7-(b)).

[22] = test system: MCF-7/T8; test: Mitoxantrone accumulation by flow cytometry in MCF-7/T8; format: cell-based, human; conditions: 20 μM Mitoxantrone, 90 min, FIG. 7-(b)
Experimental: as §6, §7

Row | Compound | resistance of cells in which ABCG2 was forcedly expressed [3] | IC50 [4] [nM] | IC50 [5] [nM] | RR: Relative Resistance [6] | IC50 [6] [nM] | IC50 [7] [nM] | RR: Relative Resistance [7] | Rel. Res. (relative resistance) [8] | IC50 at 72 h [9] [nM] | IC50 [10] [nM] | RR: Relative Resistance [10] | IC50 [11] [nM] | RR: Relative Resistance [12] | IC50 [12] [nM] | IC50 [13] [nM] | RR: Relative Resistance [13] | Rel. Res. (relative resistance) [14] | IC50 at 72 h [15] [nM] | IC50 [16] [nM] | relative resistance to the cells with introduced vector alone [19] | other results
1 | Rhodamine | – | – | – | – | – | – | – | – | – | – | – | – | – | – | – | – | – | – | – | – | Intracellular Accumulation, of that in the cell with introduced vector alone [1]: about 50%; Intracellular Accumulation compared with the cell with introduced vector alone [2]: almost the same level
2 | CC[C@@]1(O)C(=O)OCc2c1cc1n(c2=O)Cc2cc3ccccc3nc2-1 [Camptothecin] | did not display remarkable resistance | 14 | 38 | 1.3 | 58 | 38 | 2.7 | 1.2 | 52 ± 8 | 29 | 0.76 | 46 | 8.2 | 380 | 17 | 1.8 | 0.67 | 29 ± 5 | 9.4 | – | IC50 [17]: 43 ± 11 nM
3 | COc1cccc2c1C(=O)c1c(O)c3c(c(O)c1C2=O)C[C@@](O)(C(C)=O)C[C@@H]3O[C@H]1C[C@H](N)[C@H](O)[C@H](C)O1 [Daunorubicin] | – | – | – | – | – | – | – | – | – | – | – | – | – | – | – | – | – | – | – | no resistance | relative resistance to the cells with introduced vector alone ([18]; FIG. 6): 5.1 fold
4 | COc1cccc2c1C(=O)c1c(O)c3c(c(O)c1C2=O)C[C@@](O)(C(=O)CO)C[C@@H]3O[C@H]1C[C@H](N)[C@H](O)[C@H](C)O1 [Doxorubicin] | not resistant | 35 | 28 | 1.6 | 67 | 29 | 0.81 | – | – | 70 | 2.5 | 43 | 4.5 | 190 | 59 | 2.3 | – | – | 25 | no resistance | relative resistance to the cells with introduced vector alone ([18]; FIG. 6, listed as Adriamycin): 9.6 fold; relative resistance to the cells with introduced vector alone ([18]; FIG. 6, listed as adriamycin): showed resistance
5 | O=C1c2c(O)ccc(O)c2C(=O)c2c(NCCNCCO)ccc(NCCNCCO)c21 [Mitoxantrone] | did not display remarkable resistance; also recorded: not resistant | 4.4 | 33 | 1.5 | 7.1 | 27 | 6.1 | 0.60 | 31 ± 18 | 160 | 4.9 | 3.3 | 17 | 57 | 67 | 9.6 | 0.42 | 22 ± 8 | 7 | 3.8 fold | resistance [20]: 30 fold; relative resistance to the cells with introduced vector alone ([18]; FIG. 6): 25 fold; relative resistance to the cells with introduced vector alone ([18]; FIG. 6, listed as mitoxantrone): showed resistance; resistance compared to the PC-13 cell with introduced vector alone ([8]; PC-13/ABCG2-3, Example 8): 0.60 fold; Intracellular Accumulation, of that in the cell with introduced vector alone [21]: about 50%; Intracellular Accumulation, of that in the cell with introduced vector alone [22]: about 20%; resistance compared to the PC-13 cell with introduced vector alone ([14]; PC-13/ABCG2-2, Example 8): 0.42 fold; IC50 [17]: 52 ± 21 nM
